One assay addresses T1, full-length PARP-1 (Homo sapiens, UniProt P09874).
T1 construct: Full-length PARP-1 WT (residues 1–1014) was cloned in pET28 vector; made in house; host or cells: E. coli
Kind of assay: Colorimetric assay of full-length PARP-1 DNA-dependent activity. It counts as biochemical. Particulars: for IC50: 20 nM PARP-1, 40 nM DNA (18-bp duplex), 50 μM NAD+ (99:1 NAD+:bio-NAD+). The procedure: The colorimetric assay was performed as described, [28] using 20 nM of protein and 40 nM DNA (18-bp duplex). A mixture of NAD^+ and biotinylated NAD^+ (bio-NAD^+) was used at a 99:1 ratio and a final concentration of 50 µM. Reactions were allowed to proceed for 5 min before quenching. Three independent experiments were performed.

In another assay the target is T2, PARP-1 CAT domain WT (Homo sapiens, UniProt P09874).
T2 construct: The PARP-1 CAT WT (residues 661–1014) was cloned in pET28 vector; made in house; host or cells: E. coli
T2 sequence (P09874 661-1014): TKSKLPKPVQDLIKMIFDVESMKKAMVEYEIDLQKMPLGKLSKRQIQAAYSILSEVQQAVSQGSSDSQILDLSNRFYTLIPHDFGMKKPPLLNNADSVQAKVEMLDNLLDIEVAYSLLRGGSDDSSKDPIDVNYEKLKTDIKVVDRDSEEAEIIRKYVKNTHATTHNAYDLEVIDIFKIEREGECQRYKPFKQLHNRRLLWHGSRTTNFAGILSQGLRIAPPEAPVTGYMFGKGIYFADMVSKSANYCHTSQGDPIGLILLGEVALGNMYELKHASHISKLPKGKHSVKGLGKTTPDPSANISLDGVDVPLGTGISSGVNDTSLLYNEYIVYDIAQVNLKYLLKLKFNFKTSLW
Briefly: Differential scanning fluorimetry (DSF), PARP-1 CAT WT. The format is binding. The note with it: for change of apparent TM of PARP-1 CAT WT (evidence of binding): 5 μM protein, various amounts of compound; for TM: in °C (unit assumed). The procedure: DSF experiments were performed as described, [13] using 5 µM protein, 2.5 µM DNA when indicated and various concentrations of compound (BAD, carba-NAD^+, benzamide, and ADP-ribose) as indicated in Fig. 1 and Fig. 3. Experiments were performed on a Roche LightCycler 480 RT-PCR. Reactions including DNA were performed with a 26- or 28-base pair (bp) unphosphorylated oligonucleotide for PARP-1, a 28-bp 5´-phosphorylated (5´P) oligonucleotide for PARP-2, and a 47-bp oligonucleotide including a central 5´P nick for PARP-3^13 in the following buffer: 25 mM Hepes pH 8.0, 150 mM NaCl, 1 mM EDTA, and 0.1 mM TCEP. Reactions with PARP-3 were conducted at lower ionic strength to allow binding to DNA as described (25 mM Hepes pH 8.0, 50 mM NaCl, 1 mM EDTA and 0.1 mM TCEP)[13]. ΔTM values were calculated by subtracting the TM determined for the protein in the absence of compound from the TM determined in the presence of compound. Experiments were performed in triplicate and a Boltzmann sigmoid was fit to the data to determine the TM values (KaleidaGraph).

Assay [1] concerns the target T3, full-length PARP-1 D766/D770A (Homo sapiens, UniProt P09874, D766A/D770A).
T3 construct: Full-length PARP-1 WT (residues 1–1014) was cloned in pET28 vector and site-directed mutagenesis was performed; made in house; host or cells: E. coli
Kind of assay: ITC, full-length PARP-1 D766/D770A. The format is binding. Particulars: for n (stoichiometry): FL D766/D770A; for KD / Kd: FL D766/D770A 40 μM, without DNA, compound 525 μM titrated, 25°C. How it is done:
ITC experiments were performed using a MicroCal iTC200 calorimeter (GE Healthcare). BAD or benzamide at 525 μM was titrated into PARP-1 protein (50 μM for CAT WT and CAT ΔHD, 40 μM for full-length PARP-1 WT and mutants) or PARP-1 protein with DNA (20–40 μM) at 25°C. Prior to the experiment, proteins and DNA were dialyzed in 25 mM Hepes pH 8.0, 150 mM NaCl, 1 mM EDTA, and 0.1 mM TCEP. BAD and benzamide were diluted in the dialysis buffer. PARP-1/DNA complexes were assembled and incubated at RT for 30 min prior to performing the experiment. Experiments were typically designed as follows: a first injection of 0.2 μL was followed by 16 injections of 2.5 μL with a spacing of 100 s between injections. Excess heat upon each injection was integrated using an automatically adjusted base line and derived values corrected by heat of dilution. Data analysis and curve fitting were conducted using Origin 7 software. The ITC experiment for each sample was performed either two (PARP-1 WT with benzamide, PARP-1 E763/D766/D770A with benzamide, PARP-1 D766/D770A with BAD) or three times (the remaining eight samples). Table 2 lists the average KD value and stoichiometry (n) for the replicates, and the reported errors are the calculated standard deviations (representing the range of values for experiments repeated two times). We anticipate that the sub-stoichiometric n values for CAT constructs results from either the active fraction being < 100%, or the protein concentration determination being not entirely accurate. The analysis of full-length PARP-1 yielded n values around the expected value of 1.

[2] abbreviates: Figure 1e, CAT WT 5 μM, compound 25 µM, TM without compound 51.58.
Setting [3] is: Figure 1e, CAT WT 5 μM, compound 150 µM, TM without compound 51.58.
Where [4] appears, read: Figure 1e, CAT WT 5 μM, compound 750 µM, TM without compound 51.58.
The mark [5] stands for this setting: Figure 1e, CAT WT 5 μM, compound 1500 µM, TM without compound 51.58.

This note sets out measurements from publication PMC5829251, “NAD^+ analog reveals PARP-1 substrate-blocking mechanism and allosteric communication from catalytic center to DNA-binding domains” (Nature Communications, 2018).

Where “and” joins values, the source holds several entries; their conditions need not be identical. Equal values may be shown once. Entries after “also recorded” stand apart in the source; their conditions may differ.

T1 sequence (P09874 whole entry, the tested form may be a part): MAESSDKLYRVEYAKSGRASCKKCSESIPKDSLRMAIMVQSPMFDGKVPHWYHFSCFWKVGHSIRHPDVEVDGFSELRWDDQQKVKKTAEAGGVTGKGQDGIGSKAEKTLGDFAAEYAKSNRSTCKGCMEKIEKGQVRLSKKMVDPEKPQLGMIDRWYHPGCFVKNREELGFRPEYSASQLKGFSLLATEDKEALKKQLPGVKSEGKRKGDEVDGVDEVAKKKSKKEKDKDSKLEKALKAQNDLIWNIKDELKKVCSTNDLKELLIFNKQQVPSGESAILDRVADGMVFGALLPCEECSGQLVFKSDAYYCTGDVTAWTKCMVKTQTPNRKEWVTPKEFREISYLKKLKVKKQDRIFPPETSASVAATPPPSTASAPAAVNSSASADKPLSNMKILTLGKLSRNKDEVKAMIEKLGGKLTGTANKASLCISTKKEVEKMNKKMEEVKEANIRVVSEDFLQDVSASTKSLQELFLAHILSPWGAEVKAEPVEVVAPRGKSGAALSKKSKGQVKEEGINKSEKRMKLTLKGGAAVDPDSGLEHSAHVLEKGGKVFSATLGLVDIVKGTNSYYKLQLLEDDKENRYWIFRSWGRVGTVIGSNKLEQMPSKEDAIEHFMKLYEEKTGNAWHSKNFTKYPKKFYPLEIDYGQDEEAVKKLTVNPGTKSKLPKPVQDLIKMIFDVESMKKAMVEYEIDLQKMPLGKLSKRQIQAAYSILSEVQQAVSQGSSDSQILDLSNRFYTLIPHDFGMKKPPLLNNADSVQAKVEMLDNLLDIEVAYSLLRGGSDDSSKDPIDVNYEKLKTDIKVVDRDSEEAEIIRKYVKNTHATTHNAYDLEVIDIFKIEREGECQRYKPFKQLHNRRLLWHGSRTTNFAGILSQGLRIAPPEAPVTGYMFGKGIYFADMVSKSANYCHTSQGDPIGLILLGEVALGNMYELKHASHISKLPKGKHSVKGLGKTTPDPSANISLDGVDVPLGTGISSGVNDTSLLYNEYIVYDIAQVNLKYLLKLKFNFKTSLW
T3 sequence (P09874 whole entry D766A/D770A, the tested form may be a part): as the sequence (P09874 whole entry, the tested form may be a part) above, with D766A, D770A counted along it

Take `NC(=O)c1cccc(C2OC(COP(=O)(O)OP(=O)(O)OCC3OC(n4cnc5c(N)ncnc54)C(O)C3O)C(O)C2O)c1` (stereo not drawn) [BAD, benzamide adenine dinucleotide]: the IC50 on full-length PARP-1 is 8.6 µM and 8.63 µM. Also, the “change of apparent TM of PARP-1 CAT WT (evidence of binding)” value at PARP-1 CAT domain WT is “neither BAD nor carba-NAD^+ changed the apparent TM; also recorded: did not show evidence of binding”. Also, the “increase in TM of PARP-1 CAT containing the HD” value on PARP-1 CAT domain WT (4 mM BAD) is “no increase in TM”. Moreover, the TM worked out at 51.48 on PARP-1 CAT domain WT (setting [2]); 51.45 at PARP-1 CAT domain WT (setting [3]); 51.64 at PARP-1 CAT domain WT (setting [4]); 51.60 at PARP-1 CAT domain WT (setting [5]); 51.06 at PARP-1 CAT domain WT (Figure 1d, CAT WT 5 μM, compound 50 µM, TM without compound 51.23); 51.09 on PARP-1 CAT domain WT (Figure 1d, CAT WT 5 μM, compound 250 µM, TM without compound 51.23). The TM on PARP-1 CAT domain WT (Figure 1d, CAT WT 5 μM, compound 1250 µM, TM without compound 51.23) amounted to 51.30; at PARP-1 CAT domain WT (Figure 3d, PARP-1 CAT 5 μM, BAD 4 mM, TM without BAD 51.04), 51.21. In assay [1], the “n (stoichiometry)” value is on record as 0.96 + /− 0.10. The KD entry in assay [1] is on record as “showed evidence of binding”. Also, in assay [1], the affinity, expressed as Kd, was 2.49 µM.

Turning to `NC(=O)c1ccccc1` [benzamide], at full-length PARP-1, the IC50 is 4.6 µM and 4.62 µM. Moreover, the “inhibition of DNA damage-dependent activity of full-length PARP-1” value against full-length PARP-1 (20 nM PARP-1, 40 nM DNA, 50 μM NAD+) is “inhibits to a similar extent as the entire BAD molecule”. For the same compound, the “change of apparent TM of PARP-1 CAT WT (evidence of binding)” value on PARP-1 CAT domain WT is recorded as “increased the TM”. Also, the TM worked out at 52.53 at PARP-1 CAT domain WT (setting [2]), 54.28 at PARP-1 CAT domain WT (setting [3]), 54.86 on PARP-1 CAT domain WT (setting [4]) and 57.12 at PARP-1 CAT domain WT (setting [5]). Also, the “n (stoichiometry)” value in assay [1] was 0.81 + /− 0.14. In addition, in assay [1], the KD result is “also bound to benzamide similarly”. Moreover, the equilibrium dissociation constant (Kd) in assay [1] is 2.81 µM.
